Literature values, collected in patent US20060153907A1, “Liposome formulations of boronic acid compounds” (priority 2004, published 2006).

System: tumor lines
Conditions: NCI in vitro screen

For `CC(C)C[C@H](NC(=O)[C@H](Cc1ccccc1)NC(=O)c1cnccn1)B(O)O` [bortezomib], the “cytotoxicity against a range of tumor lines” value is given as “showed cytotoxicity”.
